{
  "source": "ChEMBL document CHEMBL1201862",
  "about": "“PubChem BioAssay data set” (2004)",
  "key": {"[1]": {"molecular_target": "T1, 1-phosphatidylinositol 4,5-bisphosphate phosphodiesterase gamma-1 (Homo sapiens, UniProt P19174)", "T1 sequence (P19174 whole entry)": "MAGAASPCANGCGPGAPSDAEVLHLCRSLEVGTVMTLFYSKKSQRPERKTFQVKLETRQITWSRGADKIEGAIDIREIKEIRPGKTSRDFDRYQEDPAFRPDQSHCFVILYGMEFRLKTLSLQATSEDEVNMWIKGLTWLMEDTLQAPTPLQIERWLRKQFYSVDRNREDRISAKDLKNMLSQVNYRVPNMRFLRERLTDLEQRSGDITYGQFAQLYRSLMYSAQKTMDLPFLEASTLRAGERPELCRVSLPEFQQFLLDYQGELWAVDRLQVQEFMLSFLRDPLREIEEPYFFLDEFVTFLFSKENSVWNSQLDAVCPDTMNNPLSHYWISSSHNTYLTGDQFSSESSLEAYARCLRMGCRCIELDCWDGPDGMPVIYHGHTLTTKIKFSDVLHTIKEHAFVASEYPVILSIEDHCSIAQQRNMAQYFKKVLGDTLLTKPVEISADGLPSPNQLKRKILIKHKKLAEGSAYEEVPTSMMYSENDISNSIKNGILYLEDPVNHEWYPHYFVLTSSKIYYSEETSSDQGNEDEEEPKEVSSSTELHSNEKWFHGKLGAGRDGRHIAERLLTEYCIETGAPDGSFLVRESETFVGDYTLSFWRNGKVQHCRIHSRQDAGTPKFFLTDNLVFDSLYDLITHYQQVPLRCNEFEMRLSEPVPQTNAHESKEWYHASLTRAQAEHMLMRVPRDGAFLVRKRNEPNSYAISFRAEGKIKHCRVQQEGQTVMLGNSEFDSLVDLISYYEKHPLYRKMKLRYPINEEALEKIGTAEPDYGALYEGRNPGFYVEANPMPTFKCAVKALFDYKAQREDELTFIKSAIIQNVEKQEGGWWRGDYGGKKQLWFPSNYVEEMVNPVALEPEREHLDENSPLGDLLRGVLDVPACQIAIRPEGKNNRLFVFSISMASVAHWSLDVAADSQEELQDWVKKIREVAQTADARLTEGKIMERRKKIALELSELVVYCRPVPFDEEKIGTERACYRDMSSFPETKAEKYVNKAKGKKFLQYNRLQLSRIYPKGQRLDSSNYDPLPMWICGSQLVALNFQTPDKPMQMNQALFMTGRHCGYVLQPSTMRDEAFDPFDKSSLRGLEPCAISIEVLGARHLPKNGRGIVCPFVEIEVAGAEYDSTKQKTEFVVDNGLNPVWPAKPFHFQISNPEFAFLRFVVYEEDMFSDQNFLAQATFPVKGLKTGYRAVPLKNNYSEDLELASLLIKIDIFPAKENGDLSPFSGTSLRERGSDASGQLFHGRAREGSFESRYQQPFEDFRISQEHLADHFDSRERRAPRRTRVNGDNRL", "assay": "Counterscreen for inhibitors of phospholipase C isozymes (PLC-B3): Fluorescence-based biochemical high throughput dose response assay to identify inhibitors of phospholipase C isozymes (PLC-gamma1)."}, "[2]": {"molecular_target": "T2, 1-phosphatidylinositol 4,5-bisphosphate phosphodiesterase beta-3 (Homo sapiens, UniProt Q01970)", "T2 sequence (Q01970 whole entry)": "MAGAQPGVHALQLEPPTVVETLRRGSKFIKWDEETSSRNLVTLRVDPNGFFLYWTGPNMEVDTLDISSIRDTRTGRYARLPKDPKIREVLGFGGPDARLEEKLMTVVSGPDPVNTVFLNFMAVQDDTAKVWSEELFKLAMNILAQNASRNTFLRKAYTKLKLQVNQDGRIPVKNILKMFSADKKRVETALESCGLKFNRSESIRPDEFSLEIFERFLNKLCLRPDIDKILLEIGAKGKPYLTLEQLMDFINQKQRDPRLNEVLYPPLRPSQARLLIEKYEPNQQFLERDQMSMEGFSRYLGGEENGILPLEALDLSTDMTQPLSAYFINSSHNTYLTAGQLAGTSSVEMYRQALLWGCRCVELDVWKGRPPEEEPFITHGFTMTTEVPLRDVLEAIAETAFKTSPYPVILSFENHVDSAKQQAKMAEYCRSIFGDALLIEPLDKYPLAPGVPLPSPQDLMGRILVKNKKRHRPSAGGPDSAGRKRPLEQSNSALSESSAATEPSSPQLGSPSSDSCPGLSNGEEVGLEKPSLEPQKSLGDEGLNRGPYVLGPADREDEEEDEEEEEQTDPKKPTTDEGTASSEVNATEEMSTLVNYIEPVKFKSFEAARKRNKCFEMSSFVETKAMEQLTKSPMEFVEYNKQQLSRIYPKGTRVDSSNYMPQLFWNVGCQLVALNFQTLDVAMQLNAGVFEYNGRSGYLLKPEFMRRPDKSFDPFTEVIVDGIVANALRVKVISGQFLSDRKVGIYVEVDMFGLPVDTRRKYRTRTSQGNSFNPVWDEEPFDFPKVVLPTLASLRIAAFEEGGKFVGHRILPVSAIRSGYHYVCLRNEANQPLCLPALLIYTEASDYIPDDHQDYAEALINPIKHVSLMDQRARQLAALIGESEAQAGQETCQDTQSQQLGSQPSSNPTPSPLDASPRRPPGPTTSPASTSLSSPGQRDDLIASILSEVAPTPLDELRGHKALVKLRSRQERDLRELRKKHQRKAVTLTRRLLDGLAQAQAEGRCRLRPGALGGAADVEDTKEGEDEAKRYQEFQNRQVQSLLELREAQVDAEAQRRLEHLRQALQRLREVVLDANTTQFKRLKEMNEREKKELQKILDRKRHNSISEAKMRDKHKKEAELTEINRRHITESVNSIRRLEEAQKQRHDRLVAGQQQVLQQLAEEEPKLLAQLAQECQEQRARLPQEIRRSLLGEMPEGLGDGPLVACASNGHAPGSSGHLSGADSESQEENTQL", "assay": "Fluorescence-based biochemical high throughput dose response assay to identify inhibitors of phospholipase C isozymes (PLC-B3)."}, "Paired box protein Pax-8": {"molecular_target": "Paired box protein Pax-8 (Homo sapiens, UniProt Q06710)", "assay": "PAX8 transcriptional activity inhibition in RMG-I – RMG-I cells, luciferase, cherry-pick, dose response (AID 687027);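 note: luciferase reporter driven by Pax8 target thyroperoxidase promoter measured by SteadyGlo luminescence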", "type": "functional, cell-based"}, "[3]": {"assay": "potency of ADAM10 substrate cleavage blockers – biochemical, QFRET, dose response (AID 743254);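 note: ADAM10 enzyme with the DM2 quenched FRET peptide as substrate; EDANS fluorescence gain as the protease cuts the substrate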"}, "[4]": {"molecular_target": "Disintegrin and metalloproteinase domain-containing protein 17 (Homo sapiens, UniProt P78536)", "sequence (P78536 whole entry, the tested form may be a part)": "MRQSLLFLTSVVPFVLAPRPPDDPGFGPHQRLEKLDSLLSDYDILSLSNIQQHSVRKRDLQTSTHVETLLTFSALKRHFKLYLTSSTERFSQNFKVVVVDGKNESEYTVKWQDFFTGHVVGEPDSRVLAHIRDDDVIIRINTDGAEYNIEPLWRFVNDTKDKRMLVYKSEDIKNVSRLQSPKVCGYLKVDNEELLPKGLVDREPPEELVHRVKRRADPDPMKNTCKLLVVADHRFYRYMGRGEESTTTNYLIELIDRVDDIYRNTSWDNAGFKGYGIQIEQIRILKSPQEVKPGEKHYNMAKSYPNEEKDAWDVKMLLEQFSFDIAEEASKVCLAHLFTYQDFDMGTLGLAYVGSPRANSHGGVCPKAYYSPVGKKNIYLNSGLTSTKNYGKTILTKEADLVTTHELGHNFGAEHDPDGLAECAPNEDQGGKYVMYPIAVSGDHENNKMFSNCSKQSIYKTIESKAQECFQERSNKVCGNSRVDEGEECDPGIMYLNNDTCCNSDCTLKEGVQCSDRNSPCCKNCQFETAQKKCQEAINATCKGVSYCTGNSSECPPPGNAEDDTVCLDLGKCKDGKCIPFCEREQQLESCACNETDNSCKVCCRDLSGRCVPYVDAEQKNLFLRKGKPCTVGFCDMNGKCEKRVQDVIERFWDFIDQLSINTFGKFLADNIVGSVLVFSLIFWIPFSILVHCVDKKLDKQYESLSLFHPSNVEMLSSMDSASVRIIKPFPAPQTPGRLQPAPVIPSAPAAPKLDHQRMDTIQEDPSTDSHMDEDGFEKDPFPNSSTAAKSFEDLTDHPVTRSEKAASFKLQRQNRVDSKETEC", "assay": "inhibition of ADAM17 substrate cleavage – biochemical, quenched FRET substrate, counter-screen for ADAM10 exosite inhibitor project, dose response (AID 743253)"}, "[5]": {"molecular_target": "Peroxisome proliferator-activated receptor gamma/Nuclear receptor coactivator 1 (Homo sapiens, UniProt P37231)", "assay": "TR-FRET dose response biochemical High Throughput Screening assay for agonists of the steroid receptor coactivator 1 (SRC-1) recruitment by the peroxisome proliferator-activated receptor gamma (PPAR gamma): non-selective agonists. [Related pubchem assays (depositor defined):AID1300, AID1808, AID504735, AID631]", "type": "protein assay"}, "[6]": {"molecular_target": "Peroxisome proliferator-activated receptor gamma/Nuclear receptor coactivator 2 (Homo sapiens, UniProt P37231)", "sequence (P37231 whole entry)": "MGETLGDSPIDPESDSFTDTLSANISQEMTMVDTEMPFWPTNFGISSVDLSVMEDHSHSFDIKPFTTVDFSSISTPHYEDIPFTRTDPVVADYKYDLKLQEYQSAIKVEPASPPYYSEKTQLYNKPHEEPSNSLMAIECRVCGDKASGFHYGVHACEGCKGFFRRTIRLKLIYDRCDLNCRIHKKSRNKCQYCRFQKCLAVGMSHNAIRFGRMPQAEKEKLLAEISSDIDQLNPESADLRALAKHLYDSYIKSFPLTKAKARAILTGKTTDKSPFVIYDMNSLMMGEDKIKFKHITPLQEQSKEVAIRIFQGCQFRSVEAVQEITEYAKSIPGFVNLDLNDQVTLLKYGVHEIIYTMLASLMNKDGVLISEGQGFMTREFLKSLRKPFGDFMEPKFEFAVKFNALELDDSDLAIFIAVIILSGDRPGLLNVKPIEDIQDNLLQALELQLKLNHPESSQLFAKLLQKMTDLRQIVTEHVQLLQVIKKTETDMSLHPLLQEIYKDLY", "sequence (Q15596 whole entry, further chain)": "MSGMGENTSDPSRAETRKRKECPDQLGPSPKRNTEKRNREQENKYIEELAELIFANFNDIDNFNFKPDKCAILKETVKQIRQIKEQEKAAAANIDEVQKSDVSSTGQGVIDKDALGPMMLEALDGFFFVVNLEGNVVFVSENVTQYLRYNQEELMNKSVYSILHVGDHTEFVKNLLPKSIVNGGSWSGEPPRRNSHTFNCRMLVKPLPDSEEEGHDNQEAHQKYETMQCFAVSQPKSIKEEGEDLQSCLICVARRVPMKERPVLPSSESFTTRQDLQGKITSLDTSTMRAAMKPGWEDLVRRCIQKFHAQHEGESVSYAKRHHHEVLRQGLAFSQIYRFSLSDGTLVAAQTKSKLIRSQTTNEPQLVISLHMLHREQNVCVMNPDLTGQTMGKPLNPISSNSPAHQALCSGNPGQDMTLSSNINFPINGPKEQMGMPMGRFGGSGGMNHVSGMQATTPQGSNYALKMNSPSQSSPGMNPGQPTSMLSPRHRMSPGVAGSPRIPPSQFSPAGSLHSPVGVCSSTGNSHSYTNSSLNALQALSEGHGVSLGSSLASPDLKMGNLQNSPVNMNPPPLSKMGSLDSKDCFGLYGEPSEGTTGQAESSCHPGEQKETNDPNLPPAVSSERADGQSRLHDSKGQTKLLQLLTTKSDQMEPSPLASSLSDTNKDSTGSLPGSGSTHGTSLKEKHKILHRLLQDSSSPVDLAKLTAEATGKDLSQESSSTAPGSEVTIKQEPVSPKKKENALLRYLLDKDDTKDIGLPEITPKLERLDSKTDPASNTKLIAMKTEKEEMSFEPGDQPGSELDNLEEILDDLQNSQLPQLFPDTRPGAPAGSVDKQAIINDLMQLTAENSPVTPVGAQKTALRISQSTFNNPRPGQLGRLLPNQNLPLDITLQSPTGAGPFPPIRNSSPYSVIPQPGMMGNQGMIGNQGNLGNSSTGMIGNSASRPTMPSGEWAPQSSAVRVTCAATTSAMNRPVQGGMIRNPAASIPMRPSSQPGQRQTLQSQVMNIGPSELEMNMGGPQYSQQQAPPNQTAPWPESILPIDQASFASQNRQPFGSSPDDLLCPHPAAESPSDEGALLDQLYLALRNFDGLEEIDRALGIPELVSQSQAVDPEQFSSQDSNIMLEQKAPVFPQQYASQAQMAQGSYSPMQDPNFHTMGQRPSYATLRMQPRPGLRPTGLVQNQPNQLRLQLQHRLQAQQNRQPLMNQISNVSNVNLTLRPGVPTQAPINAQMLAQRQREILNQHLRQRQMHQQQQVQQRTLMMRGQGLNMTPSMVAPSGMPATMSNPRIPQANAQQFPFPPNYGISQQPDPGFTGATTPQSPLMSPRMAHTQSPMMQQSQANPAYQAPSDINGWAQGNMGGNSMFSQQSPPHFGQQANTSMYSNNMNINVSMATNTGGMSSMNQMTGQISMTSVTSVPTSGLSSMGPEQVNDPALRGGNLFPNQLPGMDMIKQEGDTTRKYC", "assay": "(§1) TR-FRET dose response biochemical High Throughput Screening assay for agonists of the steroid receptor coactivator 2 (SRC-2) recruitment by the peroxisome proliferator-activated receptor gamma (PPAR gamma): non-selective agonists. [Related pubchem assays: 1297, 1032 ]", "type": "functional"}, "[7]": {"molecular_target": "Peroxisome proliferator-activated receptor gamma/Nuclear receptor coactivator 3 (Homo sapiens, UniProt P37231)", "sequence (P37231 whole entry)": "as the sequence (P37231 whole entry) above", "sequence (Q9Y6Q9 whole entry, further chain)": "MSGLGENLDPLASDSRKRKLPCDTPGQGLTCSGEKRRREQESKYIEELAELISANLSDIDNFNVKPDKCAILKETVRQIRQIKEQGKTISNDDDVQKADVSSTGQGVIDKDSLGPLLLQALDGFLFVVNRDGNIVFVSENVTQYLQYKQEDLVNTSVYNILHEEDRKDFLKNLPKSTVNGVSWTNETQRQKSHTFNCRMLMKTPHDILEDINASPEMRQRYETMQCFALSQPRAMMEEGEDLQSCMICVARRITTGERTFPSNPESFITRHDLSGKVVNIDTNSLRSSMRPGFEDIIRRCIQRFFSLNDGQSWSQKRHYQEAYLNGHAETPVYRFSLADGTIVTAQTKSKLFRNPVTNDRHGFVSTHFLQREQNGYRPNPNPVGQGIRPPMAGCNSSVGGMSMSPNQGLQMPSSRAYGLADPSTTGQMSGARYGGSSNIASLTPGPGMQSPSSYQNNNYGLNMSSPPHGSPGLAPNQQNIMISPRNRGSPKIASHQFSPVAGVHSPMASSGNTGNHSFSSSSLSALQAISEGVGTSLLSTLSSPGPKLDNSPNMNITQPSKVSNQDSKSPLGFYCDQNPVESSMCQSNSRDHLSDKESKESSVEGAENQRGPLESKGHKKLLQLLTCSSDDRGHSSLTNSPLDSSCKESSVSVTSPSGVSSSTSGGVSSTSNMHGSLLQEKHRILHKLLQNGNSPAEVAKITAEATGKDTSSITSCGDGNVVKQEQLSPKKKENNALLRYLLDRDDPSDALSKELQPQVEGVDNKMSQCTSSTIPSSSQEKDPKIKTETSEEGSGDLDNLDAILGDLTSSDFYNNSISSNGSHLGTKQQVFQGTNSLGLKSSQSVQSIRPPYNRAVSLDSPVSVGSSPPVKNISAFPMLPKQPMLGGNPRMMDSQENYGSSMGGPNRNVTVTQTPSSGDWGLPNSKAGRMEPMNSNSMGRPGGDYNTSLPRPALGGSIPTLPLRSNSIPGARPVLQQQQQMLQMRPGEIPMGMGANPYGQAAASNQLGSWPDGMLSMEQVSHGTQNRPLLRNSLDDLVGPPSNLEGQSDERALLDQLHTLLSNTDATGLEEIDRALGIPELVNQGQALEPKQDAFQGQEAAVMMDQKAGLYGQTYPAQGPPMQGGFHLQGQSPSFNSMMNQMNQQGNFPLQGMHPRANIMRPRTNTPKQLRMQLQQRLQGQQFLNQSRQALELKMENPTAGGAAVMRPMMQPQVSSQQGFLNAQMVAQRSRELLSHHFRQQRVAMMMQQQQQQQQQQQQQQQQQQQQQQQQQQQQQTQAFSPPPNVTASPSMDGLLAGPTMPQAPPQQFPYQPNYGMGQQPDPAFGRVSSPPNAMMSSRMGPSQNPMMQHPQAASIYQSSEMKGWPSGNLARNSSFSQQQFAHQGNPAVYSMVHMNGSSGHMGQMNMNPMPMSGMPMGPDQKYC", "assay": "as §1, with “3 (SRC-3)” for “2 (SRC-2)”, “1301 (Confirmation screen.), 1048 (Primary screen.)]” for “1297, 1032 ]”", "type": "functional"}, "INS1": {"system": "INS1", "assay": "INS-1E survival protection against cytokine death – cell-based, luminescence, retest, dose response (AID 449756)", "type": "functional", "details": "Rattus norvegicus"}, "[8]": {"molecular_target": "Heat shock protein HSP 90-alpha (Homo sapiens, UniProt P07900)", "type": "functional, organism-based"}, "[9]": {"assay": "luciferase reporter signal suppression in cells – H4 neuroglioma cells, luminescence, dose response (AID 1990)", "type": "functional, cell-based"}, "[10]": {"assay": "fluconazole-exposed Candida albicans growth modulators – fluorescence, retest, confirmation (AID 2467)", "type": "functional, cell-based"}, "[11]": {"assay": "Luminescence Cell-Based Dose Response HTS to Identify Inhibitors of 5'UTR Stem-Loop Driven Prion Protein mRNA Translation in H4 Neuroglioblastoma Cells. [Related pubchem assays: 1827 (Project Summary), 1813 (Primary HTS)]", "type": "functional"}, "[12]": {"assay": "alpha-synuclein stem-loop luciferase translation blockers – H4 neuroglioma cells, luminescence, confirmation (AID 1988)", "type": "functional, cell-based"}, "[13]": {"assay": "NIH-3T3 fibroblast cytotoxicity, dose response, cytotoxicity control, cell-based, fluorescence, Alamar Blue, secondary assay (AID 2327)", "type": "functional"}},
  "note": "The source made the active and inactive calls.",
  "data": [
    {"compound": "CCN(C(=O)COC(=O)c1ccc(C=O)cc1)c1c(N)n(Cc2ccccc2)c(=O)[nH]c1=O", "values": [
      {"measurement": "IC50", "setting": "[1]", "value": "> 122 µM (inactive)"},
      {"measurement": "IC50", "setting": "[2]", "value": "> 122 µM (inactive)"}
    ]},
    {"compound": "C=CCC[C@@H](Cc1ccc(F)cc1)C(=O)OC[C@@H](Cc1c[nH]c2ccccc12)NC(=O)[C@H](CC=C)CC(=O)N(CCO)Cc1ccccc1", "values": [
      {"measurement": "AC50", "setting": "Paired box protein Pax-8", "value": "10.9 µM (active)"},
      {"measurement": "IC50", "setting": "[3]", "value": "15.4 µM (inactive)"},
      {"measurement": "IC50", "setting": "[4]", "value": "> 69.5 µM (inactive)"}
    ]},
    {"compound": "NS(=O)(=O)c1ccc(N/N=C/c2ccc(O)cc2O)c([N+](=O)[O-])c1", "values": [
      {"measurement": "IC50", "setting": "[1]", "value": "> 123 µM (inactive)"},
      {"measurement": "IC50", "setting": "[2]", "value": "> 123 µM (inactive)"}
    ]},
    {"compound": "COc1ccc(NC(C)C(=O)N/N=C/c2ccccc2OCc2cccc(Br)c2)cc1", "note": "(stereo unspecified)", "values": [
      {"measurement": "EC50", "setting": "[5]", "value": "> 79.4 µM (inactive)"},
      {"measurement": "EC50", "setting": "[6]", "value": "> 79.4 µM (not active)"},
      {"measurement": "IC50", "setting": "[3]", "value": "> 69.5 µM (inactive)"},
      {"measurement": "IC50", "setting": "[4]", "value": "> 69.5 µM (inactive)"},
      {"measurement": "EC50", "setting": "[7]", "value": "> 79.4 µM (not active)"}
    ]},
    {"compound": "CCOc1ccc(C(Nc2cccnc2)c2cc(Cl)c3cccnc3c2O)cc1", "note": "(stereo unspecified)", "values": [
      {"measurement": "AC50", "setting": "INS1", "value": "3.6 µM (active)"},
      {"measurement": "IC50", "setting": "[3]", "value": "5.53 µM (active)"},
      {"measurement": "AC50", "setting": "[8]", "value": "2.68 µM (active)"},
      {"measurement": "EC50", "setting": "[9]", "value": "12.1 µM (active)"},
      {"measurement": "IC50", "setting": "[4]", "value": "9.11 µM (active)"},
      {"measurement": "EC50", "setting": "[10]", "value": "0.348 µM (active)"},
      {"measurement": "EC50", "setting": "[11]", "value": "13.7 µM (active)"},
      {"measurement": "EC50", "setting": "[12]", "value": "> 120 µM (not active)"},
      {"measurement": "EC50", "setting": "[13]", "value": "7.98 µM (inconclusive)"}
    ]}
  ]
}
